Experimental data: publication PMC3038857, “Using Nuclear Receptor Activity to Stratify Hepatocarcinogens” (PLoS ONE, 2011)
Read-outs that look alike come from different tables or passages of the source.

Assays:
[1] = molecular target: T1, AHR (aryl hydrocarbon receptor) (Homo sapiens, UniProt P35869); assay: ATG_Ahr_CIS: Factorial reporter gene assay (multiplexed transcription reporter, HepG2); assay type: cell-based
T1 construct: endogenous in cells; host or cells: HepG2
T1 sequence (P35869 11-848): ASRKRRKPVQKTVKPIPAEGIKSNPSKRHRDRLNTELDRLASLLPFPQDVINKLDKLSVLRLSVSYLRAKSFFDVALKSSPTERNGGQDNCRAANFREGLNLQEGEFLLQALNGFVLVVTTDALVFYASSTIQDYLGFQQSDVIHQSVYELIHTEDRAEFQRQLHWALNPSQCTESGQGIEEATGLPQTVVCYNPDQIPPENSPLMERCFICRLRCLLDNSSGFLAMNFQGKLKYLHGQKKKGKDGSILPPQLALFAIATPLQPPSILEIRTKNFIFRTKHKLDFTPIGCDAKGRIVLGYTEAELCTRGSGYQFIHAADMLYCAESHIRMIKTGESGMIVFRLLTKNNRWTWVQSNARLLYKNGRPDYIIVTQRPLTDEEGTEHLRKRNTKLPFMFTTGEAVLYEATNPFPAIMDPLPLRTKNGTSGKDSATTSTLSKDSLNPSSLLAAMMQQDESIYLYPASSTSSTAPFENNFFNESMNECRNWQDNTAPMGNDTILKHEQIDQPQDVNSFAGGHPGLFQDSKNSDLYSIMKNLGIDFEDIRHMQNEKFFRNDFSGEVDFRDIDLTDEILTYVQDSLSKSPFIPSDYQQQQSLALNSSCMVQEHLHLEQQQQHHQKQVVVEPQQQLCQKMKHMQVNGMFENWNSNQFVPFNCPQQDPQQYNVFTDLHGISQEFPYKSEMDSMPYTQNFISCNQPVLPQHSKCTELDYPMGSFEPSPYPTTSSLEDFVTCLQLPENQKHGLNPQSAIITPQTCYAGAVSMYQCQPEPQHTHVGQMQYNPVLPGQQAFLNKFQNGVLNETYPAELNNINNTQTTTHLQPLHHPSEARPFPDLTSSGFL
Experimental: A multiple reporter transcription unit (MRTU) library consisting of 48 transcription factor binding sites was transfected into the HepG2 human liver hepatoma cell line. In addition to the cis-acting reporter genes (CIS), a modification of the approach was used to generate a trans-system (TRANS) with a mammalian one-hybrid assay consisting of an additional 25 MRTU library reporting the activity of nuclear receptor super-family members. […] These assays were performed by Attagene Inc. (Morrisville NC) under contract to EPA.
In addition to the cis-acting reporter genes (CIS), a modification of the approach was used to generate a trans-system (TRANS) with a mammalian one-hybrid assay consisting of an additional 25 MRTU library reporting the activity of nuclear receptor super-family members. […] Chemicals were then tested in the CIS and TRANS assays at seven concentrations starting at the MTC and followed by three-fold serial dilutions. These assays were performed by Attagene Inc. (Morrisville NC) under contract to EPA. Detailed description of the methods, data and analysis methods for this dataset will be presented in a separate publication.

CYP1A2 = assay: CLZD_CYP1A2: Change in expression of CYP1A2 (primary human hepatocytes); assay type: cell-based; conditions: 24 hr
Method in brief: (§1)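 Five-point concentration series (0.004-40 µM) applied to primary human hepatocytes; 6/24/48 hr timepoints; transcript quantified by multiplexed nuclease protection.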

PXR (NR1I2) [2] = molecular target: T2, PXR (NR1I2) (Homo sapiens, UniProt O75469); assay: ATG_PXRE_CIS: Factorial reporter gene assay (HepG2); assay type: cell-based; set-up: endogenous in cells; host or cells: HepG2
T2 sequence (O75469 1-434): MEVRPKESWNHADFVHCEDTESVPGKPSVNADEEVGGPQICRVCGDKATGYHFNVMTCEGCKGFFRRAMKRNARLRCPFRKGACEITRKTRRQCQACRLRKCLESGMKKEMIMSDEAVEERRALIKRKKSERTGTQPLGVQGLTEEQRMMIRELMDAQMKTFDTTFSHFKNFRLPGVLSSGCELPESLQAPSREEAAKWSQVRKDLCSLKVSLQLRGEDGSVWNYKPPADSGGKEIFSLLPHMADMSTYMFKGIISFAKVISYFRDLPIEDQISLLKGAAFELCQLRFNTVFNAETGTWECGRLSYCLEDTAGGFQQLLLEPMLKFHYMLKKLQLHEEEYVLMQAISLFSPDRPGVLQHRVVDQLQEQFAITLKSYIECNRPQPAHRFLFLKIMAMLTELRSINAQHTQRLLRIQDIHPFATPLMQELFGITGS
Method in brief: (§2)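 Seven test concentrations were run, beginning at the MTC and diluted three-fold serially. PXRE activity came from cis reporters, a 48-site MRTU library in HepG2 hepatoma cells. ERRg, FXR and PPARg activity came from trans one-hybrid reporters, an additional 25-member MRTU set.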

PXR Human (NR1I2) = molecular target: T3, PXR Human (NR1I2) (Homo sapiens, UniProt O75469); assay: NCGC_PXR_Agonist_human: GAL4 BLAM Reporter gene assay: PXR Human; assay type: cell-based; conditions: agonist mode
T3 sequence (O75469 146-434 limits assumed): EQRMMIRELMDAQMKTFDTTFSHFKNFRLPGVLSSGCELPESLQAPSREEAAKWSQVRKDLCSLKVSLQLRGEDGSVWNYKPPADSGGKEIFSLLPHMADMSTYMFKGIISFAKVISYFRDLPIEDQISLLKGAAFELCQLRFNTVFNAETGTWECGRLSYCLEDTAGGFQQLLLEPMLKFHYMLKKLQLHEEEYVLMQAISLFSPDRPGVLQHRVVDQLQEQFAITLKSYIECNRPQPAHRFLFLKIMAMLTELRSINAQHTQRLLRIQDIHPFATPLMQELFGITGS
Experimental: These assays measure binding constants and enzyme inhibition values for nuclear receptors. The targets include [drawing 67] , [drawing 68] , [drawing 69] , [drawing 70] , [drawing 71] , [drawing 72] , [drawing 73] , [drawing 74] , [drawing 75] and [drawing 76] . Each of the nuclear receptor targets was measured in agonist mode. Assays were run at the NIH Chemical Genomics Center (Rockville, MD).
Cell-based HTS Assays: These assays measuring binding constants and enzyme inhibition values for nuclear receptors. The targets include AR, ER, FXR, LXR, PPARα, PPARδ, PPARγ, RXRα, RXRβ and PXR. Each of the nuclear receptor targets was measured in both agonist and antagonist mode, but the antagonist data is still undergoing analysis due to possible interference between cytotoxicity and assay activity, so antagonist mode data were not used in the present analysis. Assays were run at the NIH Chemical Genomics Center (Rockville, MD) as part of the Tox21 collaboration. […] The R^2 was required to be ≥0.5. Values where only the highest concentration exceeded 50% activity were excluded to eliminate weak or false positives. Detailed description of the methods, data and analysis methods for this dataset will be presented in a separate publication.

[3] = molecular target: T4, PPARG (peroxisome proliferator-activated receptor gamma) (Homo sapiens, UniProt P37231); assay: ATG_PPARg_TRANS: Factorial reporter gene assay (HepG2); assay type: cell-based
T4 construct: expressed in transfected cells; host or cells: HepG2
T4 sequence (P37231 1-505): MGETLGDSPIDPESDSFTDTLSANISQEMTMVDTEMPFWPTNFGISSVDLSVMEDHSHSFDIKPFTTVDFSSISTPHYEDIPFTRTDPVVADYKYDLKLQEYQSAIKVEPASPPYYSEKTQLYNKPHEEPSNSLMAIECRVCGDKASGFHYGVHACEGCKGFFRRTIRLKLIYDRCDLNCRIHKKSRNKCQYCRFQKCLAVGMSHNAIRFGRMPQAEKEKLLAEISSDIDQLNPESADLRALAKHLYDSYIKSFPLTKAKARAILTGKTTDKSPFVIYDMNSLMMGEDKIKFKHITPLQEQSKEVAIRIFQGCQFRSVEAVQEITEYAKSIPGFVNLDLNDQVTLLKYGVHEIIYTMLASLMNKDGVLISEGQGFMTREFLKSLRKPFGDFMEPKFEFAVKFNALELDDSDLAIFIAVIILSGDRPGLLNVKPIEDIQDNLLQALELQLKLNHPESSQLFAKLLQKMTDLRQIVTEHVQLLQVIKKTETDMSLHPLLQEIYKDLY
Method in brief: as §2

Rat Liver [4] = conditions: ref ToxRefDB, cited from earlier work
Rat Liver [5] = conditions: ref ToxRefDB, cited from earlier work; remark: listed apart in the source
PXR (NR1I2) [6] = molecular target: T2, PXR (NR1I2); assay: ATG_PXR_TRANS: Factorial reporter gene assay (HepG2); assay type: cell-based; set-up: endogenous in cells; host or cells: HepG2
Method in brief: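 HepG2 cells transfected with multiplexed reporter libraries: cis-acting binding-site reporters (CIS) and a one-hybrid nuclear-receptor trans system (TRANS). Chemicals tested at seven concentrations, starting at the maximum tolerated concentration with three-fold serial dilutions.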

CYP3A4 = assay: CLZD_CYP3A4: Change in expression of CYP3A4 (primary human hepatocytes); assay type: cell-based; conditions: 24 hr
Method in brief: as §1

Mouse Liver [7] = conditions: ref ToxRefDB, cited from earlier work
Rat Liver [8] = conditions: ref ToxRefDB, cited from earlier work; remark: listed apart in the source
CYP2B6 = assay: CLZD_CYP2B6: Change in expression of CYP2B6 (primary human hepatocytes); assay type: cell-based; conditions: 24 hr
Method in brief: as §1

Mouse Liver [9] = conditions: chronic study, mouse liver; ref ToxRefDB; cited from earlier work
Mouse Liver [10] = conditions: chronic study, mouse liver; ref ToxRefDB; cited from earlier work; remark: listed apart in the source
PXR (NR1I2) [11] = molecular target: T2, PXR (NR1I2); assay: NVS_NR_hPXR: Human PXR Fluormone PXR (SXR) green (cell-free HTS); assay type: binding
From the text: These are a collection of biochemical assays measuring binding constants and enzyme inhibition values. Chemicals were initially screened at a single concentration in duplicate wells at a concentration of 10 [drawing 63] M for cytochrome P-450 assays and 25 [drawing 64] M for all others. […] These assays were run by Caliper Life Sciences (Hanover, MD) under contract to EPA. Short assay descriptions are available at: http://www.caliperls.com/products/contract-research/in-vitro/.
Cell-free HTS Assays: A collection of biochemical assays measuring binding constants and enzyme inhibition values. […] These assays were run by Caliper Life Sciences (Hanover, MD) under contract to EPA. Short assay descriptions are available at http://www.caliperls.com/products/contract-research/in-vitro/. Values for all endpoints were imported into GeneData Screener (Basel, Switzerland) and normalised to solvent controls from the same plate as the tested compounds and expressed as percent of neutral control. Concentration-response curves were fit in GeneData Screener (Basel, Switzerland) Condeseo module using the Hill equation and AC50 values were determined. […] Detailed description of the methods, data and analysis methods for this dataset are described in a separate publication.

O=c1n(Cl)c(=O)n(Cl)c(=O)n1Cl [r288]
ATG_Ahr_CIS ([1]; HepG2 reporter): 4.509
CLZD_CYP1A2_24 (CYP1A2): 5.117
ATG_PXRE_CIS (PXR (NR1I2) [2]; HepG2 reporter): 4.337

CNC(=S)[S-].O.O.O.[Na+] [row 197]
NCGC_PXR_Agonist_human (PXR Human (NR1I2)): 4.503
ATG_PPARg_TRANS ([3]; HepG2): 4.569
ATG_Ahr_CIS ([1]; HepG2): 4.444
ATG_PXRE_CIS (PXR (NR1I2) [2]; HepG2): 4.167

COCC(=O)N(c1c(C)cccc1C)C(C)C(=O)OC (stereo not drawn) [row 196]
CHR_Rat_Liver_1_AnyLesion (Rat Liver [4]; chronic rat study, liver): 6
CHR_Rat_Liver_3_NeoplasticLesion (Rat Liver [5]; chronic rat study, liver): 0
ATG_PXR_TRANS (PXR (NR1I2) [6]; HepG2): 4.854
CLZD_CYP3A4_24 (CYP3A4): 4.985
CHR_Mouse_Liver_1_AnyLesion (Mouse Liver [7]; chronic mouse study, liver): 6
CHR_Rat_Liver_2_PreneoplasticLesion (Rat Liver [8]; chronic rat study, liver): 0
ATG_Ahr_CIS ([1]; HepG2): 4.149
ATG_PXRE_CIS (PXR (NR1I2) [2]; HepG2): 4.796
CLZD_CYP2B6_24 (CYP2B6): 5.11

CCOC(=O)COc1cc(-c2nn(C)c(OC(F)F)c2Cl)c(F)cc1Cl [r271]
CHR_Rat_Liver_1_AnyLesion (Rat Liver [4]; chronic study, rat liver): 6
CHR_Rat_Liver_3_NeoplasticLesion (Rat Liver [5]; chronic study, rat liver): 0
NCGC_PXR_Agonist_human (PXR Human (NR1I2)): 4.477
ATG_PXR_TRANS (PXR (NR1I2) [6]; HepG2 reporter): 4.538
CHR_Mouse_Liver_2_PreneoplasticLesion (Mouse Liver [9]): 6
CLZD_CYP3A4_24 (CYP3A4): 5.138
ATG_PPARg_TRANS ([3]; HepG2 reporter): 4.328
CHR_Mouse_Liver_1_AnyLesion (Mouse Liver [7]; chronic study, mouse liver): 6
CHR_Rat_Liver_2_PreneoplasticLesion (Rat Liver [8]; chronic study, rat liver): 6
ATG_PXRE_CIS (PXR (NR1I2) [2]; HepG2 reporter): 4.26
CLZD_CYP2B6_24 (CYP2B6): 4.918
CHR_Mouse_Liver_3_NeoplasticLesion (Mouse Liver [10]): 6

CCCCOC(=O)c1ccccc1C(=O)O [row 215]
NVS_NR_hPXR (PXR (NR1I2) [11]): 4.801
ATG_Ahr_CIS ([1]; HepG2): 4.119
